# Data taken from patent publication US20240158446A1, “CYCLIC COMPOUND HAVING SELECTIVE INHIBITORY ACTION ON KRAS OVER HRAS AND NRAS” (CHUGAI SEIYAKU KABUSHIKI KAISHA, priority 2021, published 2024).
# Read-outs that look alike come from different tables or passages of the source. *1 amine or outer side, *2 acyl side, *3 side chain or, on linkers, in order; H or OH if unused. Where a SMILES comes first, the peptide text is derived from it. Bridges are numbered along the chain shown (N, C = ends). [ ]: non-standard residue; d: D form. The star is where a group is joined. hPhe(3-Cl-4-CF3) = N[C@@H](CCc1ccc(C(F)(F)F)c(Cl)c1)C(=O)O; NPrPhe(4-CF3) = CCCN[C@@H](Cc1ccc(C(F)(F)F)cc1)C(=O)O; NMeGly(cPent) = CN[C@H](C(=O)O)C1CCCC1; Pro(4,4-F2) = O=C(O)[C@@H]1CC(F)(F)CN1; NMeD = CN[C@@H](CC(=O)O)C(=O)O; NMeL = CN[C@@H](CC(C)C)C(=O)O; X50 = O=C(CN(CCF)[*:1])[*:2]; Morpholide = C1CN(*)CCO1; NMeA = CN[C@@H](C)C(=O)O; Ac5c = NC1(C(=O)O)CCCC1; Aze = O=C(O)[C@@H]1CCN1; Ac4c = NC1(C(=O)O)CCC1; Sar = CNCC(=O)O
# Tests used:
# [1] = target: GDP-bound NRAS wild-type protein (Homo sapiens, UniProt P01111); experiment: Binding to NRAS by surface plasmon resonance (SPR), Single Cycle Kinetics; settings: for NRAS/KRAS (ratio of KD value with respect to NRAS to KD value with respect to KRAS) / NRAS/KRAS (ratio of KD value for NRAS to KD value for KRAS): SPR, GDP-bound NRAS wild-type protein vs GDP-bound KRAS wild-type protein
# Chain of GDP-bound NRAS wild-type protein (P01111 whole entry): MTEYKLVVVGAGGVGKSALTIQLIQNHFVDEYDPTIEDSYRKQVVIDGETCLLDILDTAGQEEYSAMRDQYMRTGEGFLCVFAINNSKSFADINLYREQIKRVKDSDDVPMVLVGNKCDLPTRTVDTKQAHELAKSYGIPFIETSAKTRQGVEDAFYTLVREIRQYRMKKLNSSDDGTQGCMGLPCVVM
# [2] = target: GDP-bound HRAS wild-type protein (Homo sapiens, UniProt P01112); experiment: Binding to HRAS by surface plasmon resonance (SPR), Single Cycle Kinetics; settings: for HRAS/KRAS (ratio of KD value with respect to HRAS to KD value with respect to KRAS) / HRAS/KRAS (ratio of KD value for HRAS to KD value for KRAS): SPR, GDP-bound HRAS wild-type protein vs GDP-bound KRAS wild-type protein
# Chain of GDP-bound HRAS wild-type protein (P01112 whole entry): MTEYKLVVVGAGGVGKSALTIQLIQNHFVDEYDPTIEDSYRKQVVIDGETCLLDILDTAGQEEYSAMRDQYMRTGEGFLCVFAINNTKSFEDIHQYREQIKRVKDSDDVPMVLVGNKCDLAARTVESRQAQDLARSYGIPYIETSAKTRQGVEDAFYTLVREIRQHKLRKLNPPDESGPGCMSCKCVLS
# [3] = target: GDP-bound KRAS wild-type protein (Homo sapiens, UniProt P01116); experiment: Binding to KRAS by surface plasmon resonance (SPR), Single Cycle Kinetics; settings: GDP-bound KRAS wild-type protein, read-out: KRAS KD
# Chain of GDP-bound KRAS wild-type protein (P01116 whole entry): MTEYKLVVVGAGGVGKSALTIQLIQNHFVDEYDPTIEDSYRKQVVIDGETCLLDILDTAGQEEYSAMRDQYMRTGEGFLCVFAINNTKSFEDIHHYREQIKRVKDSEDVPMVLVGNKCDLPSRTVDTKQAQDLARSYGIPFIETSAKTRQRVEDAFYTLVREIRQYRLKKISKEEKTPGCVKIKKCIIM
# [4] = SPR Single Cycle Kinetics, 1:1 binding model
# [5] = SPR, Single Cycle Kinetics, 1:1 binding model
"Kd [3, 4] [nM]",SMILES,NRAS/KRAS (ratio of KD value with respect to NRAS to KD value with respect to KRAS) [1],HRAS/KRAS (ratio of KD value with respect to HRAS to KD value with respect to KRAS) [2],NRAS/KRAS (ratio of KD value for NRAS to KD value for KRAS) [1],HRAS/KRAS (ratio of KD value for HRAS to KD value for KRAS) [2],also measured
0.029,"CCCN1C(=O)CN(C)C(=O)CN(C)C(=O)[C@H]([C@@H](C)CC)NC(=O)[C@H](CC(C)C)N(C)C(=O)C[C@@H](C(=O)N(C)C)N(C)C(=O)[C@H](C2CCCC2)N(C)C(=O)C2(CCC2)NC(=O)[C@@H]2CC(F)(F)CN2C(=O)[C@H](CCc2ccc(C(F)(F)F)c(Cl)c2)NC(=O)CN(C)C(=O)[C@@H]1Cc1ccc(C(F)(F)F)cc1 [PP0414] ([NMeL]I[Sar][Sar][NPrPhe(4-CF3)][Sar][hPhe(3-Cl-4-CF3)][Pro(4,4-F2)][Ac4c][NMeGly(cPent)][NMeD]-NMe2; lactam N-11)",B (a compound having 3 or more and less than 10 is denoted as B),C (A compound having a KD ratio of 0.1 or more and less than 3 is denoted as C),,,
,CCO[C@@H]1C[C@H]2C(=O)NC3(CC(C)(C)C3)C(=O)N(C)[C@@H](C(CC)CC)C(=O)N(C)[C@H](C(=O)N(C)C)CC(=O)N(C)[C@@H](CC3CC3)C(=O)N[C@@H]([C@@H](C)CC)C(=O)N(C)CC(=O)N(C)[C@H]3C/C=C\CCN(C3=O)[C@@H](Cc3ccc(C(F)(F)F)cc3)C(=O)N(C)CC(=O)N[C@@H](CCc3ccc(C(F)(F)F)c(Cl)c3)C(=O)N2C1 [PP2124],,,AA (a compound having 20 or more is denoted as AA),A (a compound having 10 or more and less than 20 is denoted as A),"Kd ([3]; SPR, Single Cycle Kinetics): 0.26 nM"
0.31,CCC[C@H]1C(=O)N[C@@H]([C@@H](C)CC)C(=O)N(C)CC(=O)N(C)[C@H]2C/C=C\CCN(C2=O)[C@@H](Cc2ccc(C)cc2)C(=O)N(C)CC(=O)N[C@@H](CCc2ccc3sc(F)c(C)c3c2)C(=O)N2C[C@H](OCC)C[C@H]2C(=O)NC2(CC(C)(C)C2)C(=O)N(C)[C@@H](C(CC)CC)C(=O)N(C)[C@H](C(=O)N(C)C)CC(=O)N1C [PP2894],,,,,"NRAS/KRAS (ratio of KD value with respect to GDP-bound NRAS wild-type protein to KD value with respect to KRAS) ([1]; SPR KD ratio NRAS/KRAS, class symbols): AA (a compound having 20 or more is denoted as AA); HRAS/KRAS (ratio of KD value with respect to GDP-bound HRAS wild-type protein to KD value with respect to KRAS) ([2]; SPR KD ratio HRAS/KRAS, class symbols): A (a compound having 10 or more and less than 20 is denoted as A)"
0.75,CCCN1C(=O)[C@H](C2CCCC2)N(C)C(=O)C2(CCC2)NC(=O)[C@@H]2C[C@@H](OCC)CN2C(=O)[C@H](CCc2cc(F)c(C(F)(F)F)c(F)c2)NC(=O)CN(C)C(=O)[C@H](Cc2ccc(C(F)(F)F)cc2)N2CCCC[C@@H](C2=O)N(C)C(=O)CN(C)C(=O)[C@H]([C@@H](C)CC)NC(=O)[C@H](CC(C)C)N(C)C(=O)C[C@H]1C(=O)N1CCOCC1 [PP0649],C (A compound having a KD ratio of 0.1 or more and less than 3 is denoted as C),B (a compound having 3 or more and less than 10 is denoted as B),,,
,CC[C@H](C)[C@@H]1NC(=O)[C@H](CC2CC2)N(C)C(=O)C[C@@H](C(=O)N2CCCC2)N(C)C(=O)[C@H](C2CCCC2)N(C)C(=O)C2(CCC2)NC(=O)[C@@H]2CC(F)(F)CN2C(=O)[C@H](CCc2cc(F)c(C(F)(F)F)c(F)c2)NC(=O)CN(C)C(=O)[C@H](Cc2ccc(C(F)(F)F)cc2)N2CC/C=C\C[C@@H](C2=O)N(C)C(=O)CN(C)C1=O [PP1512],,,,,"NRAS/KRAS (ratio of KD value for NRAS to KD value for KRAS) ([1]; KD ratio class): AA (a compound having 20 or more is denoted as AA); HRAS/KRAS (ratio of KD value for HRAS to KD value for KRAS) ([2]; KD ratio class): A (a compound having 10 or more and less than 20 is denoted as A); Kd [3, 5]: 0.084 nM"
,"CCO[C@@H]1C[C@H]2C(=O)NC3(CCC3)C(=O)N(C)[C@@H](C3CCCC3)C(=O)N(C)[C@H](C(=O)N(C)C)CC(=O)N(C)[C@@H](Cc3cccc(Cl)c3)C(=O)N[C@@H]([C@@H](C)CC)C(=O)N(C)CC(=O)N(C)[C@H]3C/C=C\CCN(C3=O)[C@@H](Cc3ccc(C(F)(F)F)cc3)C(=O)N(C)CC(=O)N[C@@H](CCc3cc(F)c(C(F)(F)F)c(F)c3)C(=O)N2C1 [PP1127, (2S,8S,12R,14S,20S,23S,27S,30S,36S,38Z)-27-[(3-chlorophenyl)methyl]-20-cyclopentyl-8-[2-[3,5-difluoro-4-(trifluoromethyl)phenyl]ethyl]-12-ethoxy-N,N,4,19,22,26,32,35-octamethyl-30-[(1S)-1-methylpropyl]-3,6,9,15,18,21,25,28,31,34,42-undecaoxo-2-[[4-(trifluoromethyl)phenyl]methyl]spiro[1,4,7,10,16,19,22,26,29,32,35-undecazatricyclo[34.5.1.0^10,14]dotetracont-38-ene-17,1′-cyclobutane]-23-carboxamide]",,,AA (a compound having 20 or more is denoted as AA),A (a compound having 10 or more and less than 20 is denoted as A),"Kd ([3]; SPR, Single Cycle Kinetics): 0.11 nM"
0.62,CCO[C@@H]1C[C@H]2C(=O)NC3(CCC3)C(=O)N(C)[C@@H](C3CCCC3)C(=O)N(CCC3CCC3)[C@H](C(=O)N3CCOCC3)CC(=O)N(C)[C@@H](CC(C)C)C(=O)N[C@@H]([C@@H](C)CC)C(=O)N(C)CC(=O)N(C)[C@H]3CCCCN(C3=O)[C@@H](Cc3ccc(C(F)(F)F)cc3)C(=O)N(C)CC(=O)N[C@@H](CCc3cc(F)c(C(F)(F)F)c(F)c3)C(=O)N2C1 [PP0650],C (A compound having a KD ratio of 0.1 or more and less than 3 is denoted as C),B (a compound having 3 or more and less than 10 is denoted as B),,,
,CCO[C@@H]1C[C@H]2C(=O)NC3(CC(F)(F)C3)C(=O)N(C)[C@@H](C(CC)CC)C(=O)N(C)C(C(C)C)CC(=O)N(C)[C@@H](CC)C(=O)N[C@@H]([C@@H](C)CC)C(=O)N(C)CC(=O)N(C)[C@H]3C/C=C\CCN(C3=O)[C@@H](Cc3ccc(C(F)(F)F)cc3)C(=O)N(C)CC(=O)N[C@@H](CCc3cc(F)c(C(F)(F)F)c(F)c3)C(=O)N2C1 (stereo partly drawn) [PP1591],,,,,"NRAS/KRAS (ratio of KD value for NRAS to KD value for KRAS) ([1]; KD ratio class): A (a compound having 10 or more and less than 20 is denoted as A); HRAS/KRAS (ratio of KD value for HRAS to KD value for KRAS) ([2]; KD ratio class): A (a compound having 10 or more and less than 20 is denoted as A); Kd [3, 5]: 4.6 nM"
0.33,CCCN1C(=O)[C@@H]2CCN2C(=O)[C@H](C)N(C)C(=O)[C@H]([C@@H](C)CC)NC(=O)[C@H](CC(C)C)N(C)C(=O)C[C@@H](C(=O)N2CCOCC2)N(C)C(=O)[C@H](C2CCCC2)N(C)C(=O)C2(CCCC2)NC(=O)[C@H](C)NC(=O)[C@H](CCc2ccc(C(F)(F)F)c(Cl)c2)NC(=O)CN(C)C(=O)[C@@H]1Cc1ccc(C(F)(F)F)cc1 [PP0153] ([NMeL]I[NMeA][Aze][NPrPhe(4-CF3)][Sar][hPhe(3-Cl-4-CF3)]A[Ac5c][NMeGly(cPent)][NMeD]-Morpholide; lactam N-11),,,C (A compound having a KD ratio of 0.1 or more and less than 3 is denoted as C),C (A compound having a KD ratio of 0.1 or more and less than 3 is denoted as C),
,CCO[C@@H]1C[C@H]2C(=O)NC3(CCC3)C(=O)N(C)[C@@H](C3CCCC3)C(=O)N(C)[C@H](C(=O)N(C)C)CC(=O)N(C)[C@@H](CC)C(=O)N[C@@H]([C@@H](C)CC)C(=O)N(C)CC(=O)N(C)[C@H]3CCCCN(C3=O)[C@@H](Cc3ccc(C(F)(F)F)cc3)C(=O)N(C)CC(=O)N[C@@H](CCc3ccc(C(F)(F)F)c(C)c3)C(=O)N2C1 [PP0882],,,C (A compound having a KD ratio of 0.1 or more and less than 3 is denoted as C),B (a compound having 3 or more and less than 10 is denoted as B),"Kd ([3]; SPR, Single Cycle Kinetics): 0.02 nM"
0.12,CCCN1C(=O)[C@@H]2CCN2C(=O)[C@H](C)N(C)C(=O)[C@H]([C@@H](C)CC)NC(=O)[C@H](CC(C)C)N(C)C(=O)C[C@@H](C(=O)N2CCOCC2)N(C)C(=O)[C@H](C2CCCC2)N(C)C(=O)C2(CCCC2)NC(=O)[C@@H]2CCCN2C(=O)[C@H](CCc2ccc(C(F)(F)F)c(Cl)c2)NC(=O)CN(C)C(=O)[C@@H]1Cc1ccc(C(F)(F)F)cc1 [PP0053] ([NMeL]I[NMeA][Aze][NPrPhe(4-CF3)][Sar][hPhe(3-Cl-4-CF3)]P[Ac5c][NMeGly(cPent)][NMeD]-Morpholide; lactam N-11),,,C (A compound having a KD ratio of 0.1 or more and less than 3 is denoted as C),C (A compound having a KD ratio of 0.1 or more and less than 3 is denoted as C),
0.52,CCCN1C(=O)CN(C)C(=O)CN(CCF)C(=O)[C@H]([C@@H](C)CC)NC(=O)[C@H](CC(C)C)N(C)C(=O)C[C@@H](C(=O)N2CCOCC2)N(C)C(=O)[C@H](C2CCCC2)N(C)C(=O)C2(CCCC2)NC(=O)[C@@H]2CCCN2C(=O)[C@H](CCc2ccc(C(F)(F)F)c(Cl)c2)NC(=O)CN(C)C(=O)[C@@H]1Cc1ccc(C(F)(F)F)cc1 [PP0751] ([NMeL]I[X50][Sar][NPrPhe(4-CF3)][Sar][hPhe(3-Cl-4-CF3)]P[Ac5c][NMeGly(cPent)][NMeD]-Morpholide; lactam N-11),B (a compound having 3 or more and less than 10 is denoted as B),C (A compound having a KD ratio of 0.1 or more and less than 3 is denoted as C),,,
